According to PubChem BioAssay AID1195 (EPA DSSTox, 2008):
Values joined by “and” are separate entries in the source; they are usually repeats but may differ in a detail not shown here. Equal values may be shown once.

System: human maximum recommended daily dose, FDA database
Assay: DSSTox (FDAMDD) FDA Maximum (Recommended) Daily Dose Database
Conditions: hits give low values
Source text: The Food and Drug Administration (FDA) Center for Drug Evaluation and Research, Office of Pharmaceutical Science, Informatics and Computational Safety Analysis Staff's Maximum Recommended Daily Dose (FDAMDD) database contains values for over 1200 pharmaceuticals listed in Martindale: The Extra Pharmacopoeia (1973, 1983, and 1993) and The Physicians' Desk Reference (1995 and 1999). Some classes of chemicals were excluded from the FDAMDD database due to their unsuitability for most QSAR modeling programs. These were inorganic chemicals, high molecular weight polymers (>5000 Daltons), fibers, salts, mixtures of organic chemicals, and small molecules (<100 Daltons). FDAMDD is the non-proprietary portion of the database that was used in the QSAR analysis reported in the Main Citation. DSSTox FDAMDD has fewer substance records than the original MRDD Source database due to consolidation of partial structures (i.e., complexed entities) into a single record and elimination of duplicate entries. DSSTox FDAMDD also differs from the MRDD Source database in presenting complete structural information pertaining to the actual salt or complexed form corresponding to the listed ChemicalName and CASRN. According to the Source authors, there are a number of cases where multiple related forms or derivatives of a drug were listed as separate records but were assumed to fall under the same clinical toxicity assessment and, therefore, assigned the same Dose_MRDD_mg activity value. For the DSSTox FDAMDD, we have labeled these derivatives in the ChemClass_MRDD_grouping field and provide their counts in the ChemicalReplicateCount field to highlight their special nature.
Maximum recommended daily dose (or maximum recommended therapeutic dose) values were determined from pharmaceutical clinical trials that employed an oral route of exposure and daily treatments, usually for 3-12 months. Drugs were given as single or divided dose treatment regimens to achieve desired pharmacological effects. Roughly 5% of the pharmaceuticals in the FDAMDD data file were antineoplastics and anesthetics and were administered intravenously and/or intramuscularly. When separate MRDDs were reported for different routes of exposure, only the oral MRDD was included in the data file and only MRDD values reported for the average adult patient were used. Pharmaceuticals that are administered orally are usually tested over a limited range of doses and have MRDDs reported as mg/day. The mg/day unit was converted to mg/kg-body weight (bw)/day based upon an average adult weighing 60 kg. In contrast, the dose unit for most antineoplastic drug MRDDs is reported as mg/m2 which was converted to mg/kg-bw/day using the formula mg/kg-bw/day = mg/m2/37 for an average adult. Additionally, a few drugs had MRDDs reported in parts per million (ppm) which were converted to mg/kg-bw/day on the basis that 1000 ppm equals 25 mg/kg-bw/day for an average 60 kg adult. Activity Score is mapping of LOG10(1/Dose_MRDD_mmol) spanning activity range [MIN, MAX] onto Integer 1-100 Activity range, where 100 is highest potency and 1 is lowest potency: ActivityScore = 100 * INTEGER[(LOGINV_MRDD_mmol - MIN)/(MAX […] MIN)]. Activity Outcome is "active" for all substances, since Dose_MRDD_mmol is reported for all substances.

[1] = TherapeuticCategory: antimalarial
[2] = TherapeuticCategory: antihypertensive
[3] = TherapeuticCategory: anticonvulsant
[4] = TherapeuticCategory: diagnostic aid
[5] = TherapeuticCategory: antibacterial
[6] = TherapeuticCategory: antidiabetic
[7] = TherapeuticCategory: cholinergic
[8] = TherapeuticCategory: antimigraine

## C[N+](C)(C)CC(O)CC(=O)[O-] (stereo not given)
TherapeuticCategory: antihyperlipoproteinemic
  maximum recommended daily dose (mmol/kg-bw/day): 0.104

## CC(C)(N)Cc1ccc(Cl)cc1
TherapeuticCategory: anorexic
  maximum recommended daily dose (mmol/kg-bw/day): 0.00588

## N=C(N)c1ccc(N=NNc2ccc(C(=N)N)cc2)cc1 (tested in a mixture with another compound)
TherapeuticCategory: antiprotozoal
  maximum recommended daily dose (mmol/kg-bw/day): 0.0097

## CCCCC1C(=O)N(c2ccccc2)N(c2ccccc2)C1=O
TherapeuticCategory: anti inflammatory
  maximum recommended daily dose (mmol/kg-bw/day): 0.0324

## CCOC(=O)c1c(C)cc2c(CO)n[nH]c(=O)c2c1C
TherapeuticCategory: phosphodiesterase inhibitor
  maximum recommended daily dose (mmol/kg-bw/day): 0.724

## CC(C)N=C(N)/N=C(\N)Nc1ccc(Cl)cc1
[1]
  maximum recommended daily dose (mmol/kg-bw/day): 0.0131

## COC(=O)[C@H]1[C@H]2C[C@@H]3c4[nH]c5cc(OC)ccc5c4CCN3C[C@H]2C[C@@H](OC(=O)c2cc(OC)c(OC)c(OC)c2)[C@@H]1OC
[2]
  maximum recommended daily dose (mmol/kg-bw/day): 1.64e-05

## C[C@]12CC[C@@H]3c4ccc(O)cc4CC[C@H]3[C@@H]1CC[C@@H]2O
TherapeuticCategory: estrogen
  maximum recommended daily dose (mmol/kg-bw/day): 0.00184

## CC1CC(OC(=O)C(O)c2ccccc2)CC(C)(C)C1 (stereo not given)
TherapeuticCategory: vasodilator
  maximum recommended daily dose (mmol/kg-bw/day): 0.0966

## C=CCN1C(=O)C(CC(C)C)NC1=S (stereo not given)
[3]
  maximum recommended daily dose (mmol/kg-bw/day): 0.188

## C(=C\c1ccccc1)/CN1CCN(C(c2ccccc2)c2ccccc2)CC1
TherapeuticCategory: antihistaminic, peripheral vasodilator
  maximum recommended daily dose (mmol/kg-bw/day): 0.0102

## C[N+](C)(CCOc1ccccc1)Cc1ccccc1
TherapeuticCategory: anthelmintic
  maximum recommended daily dose (mmol/kg-bw/day): 0.163 and 0.094

## CCSc1ccc2c(c1)N(CCCN1CCN(C)CC1)c1ccccc1S2
TherapeuticCategory: antiemetic
  maximum recommended daily dose (mmol/kg-bw/day): 0.00125

## CC(C)N=C(N)/N=C(\N)Nc1ccc(Cl)c(Cl)c1
[1]
  maximum recommended daily dose (mmol/kg-bw/day): 0.00116

## Nc1ccn([C@H]2CC[C@@H](CO)O2)c(=O)n1
TherapeuticCategory: antiviral
  maximum recommended daily dose (mmol/kg-bw/day): 0.000178

## OC(c1ccccc1)(c1ccccc1)C1CCCCN1 (stereo not given)
TherapeuticCategory: CNS stimulant
  maximum recommended daily dose (mmol/kg-bw/day): 0.000374

## CCC(C)C(C)(COC(N)=O)COC(N)=O (stereo not given)
[2]
  maximum recommended daily dose (mmol/kg-bw/day): 0.0861

## CC#C[C@]1(O)CC[C@H]2[C@@H]3CCC4=CC(=O)CCC4=C3[C@@H](c3ccc(N(C)C)cc3)C[C@@]21C
TherapeuticCategory: abortifacient
  maximum recommended daily dose (mmol/kg-bw/day): 0.0233

## C[C@]12CC[C@H]3[C@@H](CCC4=CC(=O)CC[C@@H]43)[C@@H]1CC[C@@H]2OC(=O)CCc1ccccc1
TherapeuticCategory: anabolic steroid
  maximum recommended daily dose (mmol/kg-bw/day): 0.00819

## NS(=O)(=O)c1cc2c(cc1C(F)(F)F)NCNS2(=O)=O
TherapeuticCategory: antihypertensive, diuretic
  maximum recommended daily dose (mmol/kg-bw/day): 0.0101

## CC(=O)N(CC(O)CO)c1c(I)c(C(=O)NCC(O)CO)c(I)c(C(=O)NCC(O)CO)c1I (stereo not given)
[4]
  maximum recommended daily dose (mmol/kg-bw/day): 0.134

## CCO[C@@H]1O[C@H](C(COCc2ccccc2)OCc2ccccc2)[C@H](OCc2ccccc2)[C@H]1O (stereo not given in full)
TherapeuticCategory: sclerosing agent
  maximum recommended daily dose (mmol/kg-bw/day): 0.0278

## Clc1cccc(Cl)c1NC1=NCCN1
[2]
  maximum recommended daily dose (mmol/kg-bw/day): 0.000174

## CN[C@@H]1[C@H](O[C@H]2[C@H](O[C@H]3[C@H](O)[C@@H](O)[C@H](N=C(N)N)[C@@H](O)[C@@H]3N=C(N)N)O[C@@H](C)[C@]2(O)C=O)O[C@@H](CO)[C@H](O)[C@H]1O
[5]
  maximum recommended daily dose (mmol/kg-bw/day): 0.0344

## CC/C(=C(/CC)c1ccc(O)cc1)c1ccc(O)cc1
TherapeuticCategory: estrogen
  maximum recommended daily dose (mmol/kg-bw/day): 0.0373

## Nc1ccc(N=Nc2ccccc2)c(N)n1
TherapeuticCategory: analgesic
  maximum recommended daily dose (mmol/kg-bw/day): 0.0313

## NCCCC(N)(C(=O)O)C(F)F (stereo not given)
TherapeuticCategory: antineoplastic, antineumocystis, antiprotozoal
  maximum recommended daily dose (mmol/kg-bw/day): 2.2

## CCN(CC)Cc1cc(Nc2ccnc3cc(Cl)ccc23)ccc1O
[1]
  maximum recommended daily dose (mmol/kg-bw/day): 0.00936

## CN(C)C(=N)N=C(N)N
[6]
  maximum recommended daily dose (mmol/kg-bw/day): 0.387

## Cc1ccc(C(=O)Oc2ccc(C(O)CNC(C)(C)C)cc2OC(=O)c2ccc(C)cc2)cc1 (stereo not given)
TherapeuticCategory: bronchodilator
  maximum recommended daily dose (mmol/kg-bw/day): 8.02e-05

## C=C1CC[C@@]2(O)[C@H]3Cc4ccc(O)c5c4[C@@]2(CCN3CC2CC2)[C@H]1O5
TherapeuticCategory: narcotic antagonist
  maximum recommended daily dose (mmol/kg-bw/day): 0.00245

## CN1C(=O)OC(C)(C)C1=O
[3]
  maximum recommended daily dose (mmol/kg-bw/day): 0.279

## CC(=O)OCC(=O)[C@@]1(O)[C@H](C)C[C@H]2[C@@H]3CCC4=CC(=O)C=C[C@]4(C)[C@@]3(F)C(O)C[C@@]21C (stereo not given in full)
TherapeuticCategory: glucocorticoid, anti inflammatory
  maximum recommended daily dose (mmol/kg-bw/day): 0.000345

## CC[C@]1(O)CC[C@H]2[C@@H]3CCC4=CC(=O)CC[C@@H]4[C@H]3CC[C@@]21C
TherapeuticCategory: androgen
  maximum recommended daily dose (mmol/kg-bw/day): 0.00165

## CO/N=C(/C(=O)N[C@@H]1C(=O)N2C(C(=O)OC(C)OC(C)=O)=C(COC(N)=O)CS[C@H]12)c1ccco1 (stereo not given in full)
[5]
  maximum recommended daily dose (mmol/kg-bw/day): 0.0327

## NNc1nnc(NN)c2ccccc12
[2]
  maximum recommended daily dose (mmol/kg-bw/day): 0.0175

## CC(C)(C)NC(=O)[C@H]1CC[C@H]2[C@@H]3CC[C@H]4NC(=O)C=C[C@]4(C)[C@H]3CC[C@]12C
TherapeuticCategory: prostatic hypertrophy treatment
  maximum recommended daily dose (mmol/kg-bw/day): 0.000224

## OCCN1CCN(CCCN2c3ccccc3C=Cc3ccccc32)CC1
TherapeuticCategory: antidepressant, antipsychotic
  maximum recommended daily dose (mmol/kg-bw/day): 0.0138

## CO/N=C(\C(=O)N[C@@H]1C(=O)N2C(C(=O)O)=C(CSc3nnnn3C)CS[C@H]12)c1csc(N)n1
[5]
  maximum recommended daily dose (mmol/kg-bw/day): 0.13

## CNCC12CCC(c3ccccc31)c1ccccc12
TherapeuticCategory: anxiolytic, skeletal muscle relaxant
  maximum recommended daily dose (mmol/kg-bw/day): 0.00401

## CCn1cc(C(=O)O)c(=O)c2cc3c(cc21)OCO3
[5]
  maximum recommended daily dose (mmol/kg-bw/day): 0.0957

## CC(C)(CO)C(O)C(=O)NCCCO (stereo not given)
[7]
  maximum recommended daily dose (mmol/kg-bw/day): 0.0406

## O=C(OCCN1CCCCC1)C(O)(c1ccccc1)c1ccccc1
TherapeuticCategory: anticholinergic, antispasmodic
  maximum recommended daily dose (mmol/kg-bw/day): 0.00392

## Cc1nnc2n1-c1ccc(Cl)cc1C(c1ccccc1)=NC2
TherapeuticCategory: anxiolytic
  maximum recommended daily dose (mmol/kg-bw/day): 0.000541

## CC(CN1c2ccccc2Sc2ccc(S(=O)(=O)N(C)C)cc21)N(C)C (stereo not given)
[8]
  maximum recommended daily dose (mmol/kg-bw/day): 0.0034

## CCCC1C(=O)N2C(N(C)C)=Nc3ccc(C)cc3N2C1=O (stereo not given)
TherapeuticCategory: analgesic, anti inflammatory
  maximum recommended daily dose (mmol/kg-bw/day): 0.0892

## CCc1cc(C(N)=S)ccn1
[5]
  maximum recommended daily dose (mmol/kg-bw/day): 0.1

## COCCOc1cnc(NS(=O)(=O)c2ccccc2)nc1
[6]
  maximum recommended daily dose (mmol/kg-bw/day): 0.108

## NC[C@H]1O[C@H](O[C@H]2[C@H](O)[C@@H](O[C@H]3O[C@H](CO)[C@@H](O)[C@H](N)[C@H]3O)[C@H](N)C[C@@H]2N)[C@H](N)[C@@H](O)[C@@H]1O
[5]
  maximum recommended daily dose (mmol/kg-bw/day): 0.031

## CCN(CC)CCOC(=O)C1(c2ccccc2)CCCC1
TherapeuticCategory: antitussive
  maximum recommended daily dose (mmol/kg-bw/day): 0.0173

## C[C@H]1O[C@@H](n2cc(F)c(=O)[nH]c2=O)[C@H](O)[C@@H]1O
TherapeuticCategory: antineoplastic
  maximum recommended daily dose (mmol/kg-bw/day): 0.0812

## CN(C)C(=O)Oc1ccc[n+](C)c1
[7]
  maximum recommended daily dose (mmol/kg-bw/day): 0.0766

## Cc1onc(-c2ccccc2)c1C(=O)N[C@@H]1C(=O)N2[C@@H]1SC(C)(C)[C@@H]2C(=O)O
[5]
  maximum recommended daily dose (mmol/kg-bw/day): 0.249

## O=C1CN=C(c2ccccc2)c2cc([N+](=O)[O-])ccc2N1
TherapeuticCategory: anticonvulsant, hypnotic
  maximum recommended daily dose (mmol/kg-bw/day): 0.00118

## C[C@]12CC[C@@H]3c4ccc(OC(=O)c5ccccc5)cc4CC[C@H]3[C@@H]1CC[C@@H]2O
TherapeuticCategory: estrogen
  maximum recommended daily dose (mmol/kg-bw/day): 0.00133

## OCCOCCN1CCN(C(c2ccccc2)c2ccc(Cl)cc2)CC1 (stereo not given)
TherapeuticCategory: anxiolytic, antihistaminic
  maximum recommended daily dose (mmol/kg-bw/day): 0.0178

## C[C@]12CC[C@@H]3c4ccc(OC(=O)Cc5ccc(N(CCCl)CCCl)cc5)cc4CC[C@H]3[C@@H]1CC[C@@H]2OC(=O)Cc1ccc(N(CCCl)CCCl)cc1
TherapeuticCategory: estrogen
  maximum recommended daily dose (mmol/kg-bw/day): 0.0211

## CNC(=O)c1c(I)c(NC(=O)CCCCC(=O)Nc2c(I)c(C(=O)O)c(I)c(C(=O)NC)c2I)c(I)c(C(=O)O)c1I
[4]
  maximum recommended daily dose (mmol/kg-bw/day): 0.0798

## CCN(CC)CCN1C(=O)CN=C(c2ccccc2F)c2cc(Cl)ccc21
TherapeuticCategory: sedative, hypnotic
  maximum recommended daily dose (mmol/kg-bw/day): 0.00129

## CC[C@@H](CO)NC(=O)[C@@H]1C=C2c3cccc4c3c(cn4C)C[C@H]2N(C)C1
[8]
  maximum recommended daily dose (mmol/kg-bw/day): 0.000283
